Source: patent US11896609B2, “Pharmaceutical composition for treating inflammatory diseases comprising germanium telluride nanosheets coated with polyvinylpyrrolidone” (Industry-Academic Cooperation Foundation, priority 2021, dated 2024)

What was measured:
[1] = IVIS fluorescence imaging biodistribution after oral administration; assay type: in vivo, mice; conditions: 5 mg/kg oral, IVIS at 1, 6 and 24 hours
Method: After GeTe-PVP NSs (5 mg/kg, 100 μl) or an ICG solution (5 mg/kg, 200 μl) were orally administered, the mice were subjected to laparotomy at 1, 6, and 24 hours, and the biodistribution of GeTe-PVP NSs and the ICG solution was photographed with an in vivo imaging system (IVIS). Furthermore, the stomach, intestine, liver, lungs, pancreas, heart, and kidneys were removed at each time to confirm their biodistribution by fluorescence imaging with IVIS and quantify the amounts of GeTe-PVP NSs and ICG accumulated in each organ by FL intensity.

[2] = system: DSS-induced colitis model; test: DSS-induced inflammatory bowel disease (colitis) model; assay type: in vivo, C57BL/6 mice
Method: 7- to 8-week-old male C57BL/6 mice (Orient Bio Inc.; Seongnam, Korea) were used for the experiments. Colitis was induced by allowing an acute inflammatory bowel disease model to ingest drinking water to which 2% dextran sodium sulfate (DSS; MP Biochemical, Irvine, Ca, USA) was added for 7 days. A normal control group was allowed to ingest the same amount of water for the same time (FIG. 19).
The experimental groups were classified into the following four groups (Table 1): a normal control group (Group 1, n=8), a group in which colitis is induced by DSS (Group 2, n=8), a group in which sulfasalazine (SAZ), which is a common therapeutic agent, was administered to a DSS-induced colitis model (Group 3, n=8, SAZ=200 mg/kg/day), and a group in which GeTe-PVP NSs were administered to a DSS-induced colitis model (Group 4, n=8, GeTe-PVP NS=5 mg/kg/day).
Body weight changes and the disease activity index (DAI) of mice were confirmed every day for 7 days. Each score of weight loss index (0 to 4; FIG. 20A), rectal bleeding observed with the naked eye in the stool or anus (0 to 3; FIG. 20C), and stool consistency (0 to 3; FIG. 20B) is summed to evaluate the disease activity index on a 10-point scale (FIG. 20D). [Stevceva L, Pavli P, Husband A, Ramsay A, Doe WF. Dextran sulphate sodium-induced colitis is ameliorated in interleukin 4 deficient mice. Genes Immun 2001; 2:309-316.] […]

SMILES	time after administration until which a large amount remained in the intestine (FL intensity) [1] [h]	disease activity index (DAI) compared to DSS group (Group 2) ([2]; DSS colitis mice, SAZ 200 mg/kg/day, GeTe-PVP NS 5 mg/kg/day)	inflammatory findings (H&E, PAS staining) ([2]; proximal and distal regions of excised intestine)
CC1(C)C(/C=C/C=C/C=C/C=C2\N(CCCCS(=O)(=O)O)c3ccc4ccccc4c3C2(C)C)=[N+](CCCCS(=O)(=O)[O-])c2ccc3ccccc3c21 [ICG solution, Indocyanine green]	≤ 1	–	–
O=C(O)c1cc(/N=N/c2ccc(S(=O)(=O)Nc3ccccn3)cc2)ccc1O [sulfasalazine]	–	lower DAI compared to Group 2	many inflammatory findings were not found
